The text below walks through data of the Kinase Knowledgebase extract (Sharma et al. 2016).

One test addresses MAPK14 (human) (UniProt Q16539). Put plainly: Enzyme Assay.
The target in the next test is ROCK2 (human) (UniProt O75116). The test can be described thus: Enzyme Assay.
For the next test, the target named is CDK2 (human) (UniProt P24941). Put plainly: Enzyme Assay.
The target of the next test is EGFR (human) (UniProt P00533).
Chain of EGFR (human) (P00533 whole entry, looked up): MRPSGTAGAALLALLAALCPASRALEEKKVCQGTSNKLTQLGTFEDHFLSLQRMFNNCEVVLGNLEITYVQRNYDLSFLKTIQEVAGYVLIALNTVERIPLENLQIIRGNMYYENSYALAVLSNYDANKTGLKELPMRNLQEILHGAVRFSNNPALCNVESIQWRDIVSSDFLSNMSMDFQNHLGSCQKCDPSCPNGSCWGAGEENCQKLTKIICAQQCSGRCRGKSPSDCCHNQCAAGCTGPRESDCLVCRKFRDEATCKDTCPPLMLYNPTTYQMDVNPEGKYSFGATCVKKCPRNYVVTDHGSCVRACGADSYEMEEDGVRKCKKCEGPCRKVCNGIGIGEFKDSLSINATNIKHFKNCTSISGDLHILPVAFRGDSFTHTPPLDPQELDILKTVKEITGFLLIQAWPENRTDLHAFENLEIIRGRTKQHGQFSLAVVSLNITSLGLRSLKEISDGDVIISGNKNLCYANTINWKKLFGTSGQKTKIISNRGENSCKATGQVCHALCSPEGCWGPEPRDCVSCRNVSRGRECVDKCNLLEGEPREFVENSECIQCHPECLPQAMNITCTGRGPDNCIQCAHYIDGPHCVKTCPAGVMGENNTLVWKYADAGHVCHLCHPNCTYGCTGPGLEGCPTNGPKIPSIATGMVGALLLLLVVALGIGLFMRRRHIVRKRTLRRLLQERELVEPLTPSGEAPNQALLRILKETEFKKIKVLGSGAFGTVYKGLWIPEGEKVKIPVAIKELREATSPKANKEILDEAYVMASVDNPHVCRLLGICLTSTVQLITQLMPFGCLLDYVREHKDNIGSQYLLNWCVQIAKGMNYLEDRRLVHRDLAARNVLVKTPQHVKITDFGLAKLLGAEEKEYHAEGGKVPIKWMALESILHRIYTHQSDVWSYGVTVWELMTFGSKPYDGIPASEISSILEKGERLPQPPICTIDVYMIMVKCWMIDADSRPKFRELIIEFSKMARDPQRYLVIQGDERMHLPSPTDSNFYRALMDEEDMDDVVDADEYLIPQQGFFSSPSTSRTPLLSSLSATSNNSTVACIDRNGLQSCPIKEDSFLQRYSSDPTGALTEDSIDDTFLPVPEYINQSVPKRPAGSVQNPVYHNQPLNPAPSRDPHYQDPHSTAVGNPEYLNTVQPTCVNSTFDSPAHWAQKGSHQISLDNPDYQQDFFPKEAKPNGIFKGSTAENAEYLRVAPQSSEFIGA

Chain of ROCK2 (human) (O75116 whole entry, looked up): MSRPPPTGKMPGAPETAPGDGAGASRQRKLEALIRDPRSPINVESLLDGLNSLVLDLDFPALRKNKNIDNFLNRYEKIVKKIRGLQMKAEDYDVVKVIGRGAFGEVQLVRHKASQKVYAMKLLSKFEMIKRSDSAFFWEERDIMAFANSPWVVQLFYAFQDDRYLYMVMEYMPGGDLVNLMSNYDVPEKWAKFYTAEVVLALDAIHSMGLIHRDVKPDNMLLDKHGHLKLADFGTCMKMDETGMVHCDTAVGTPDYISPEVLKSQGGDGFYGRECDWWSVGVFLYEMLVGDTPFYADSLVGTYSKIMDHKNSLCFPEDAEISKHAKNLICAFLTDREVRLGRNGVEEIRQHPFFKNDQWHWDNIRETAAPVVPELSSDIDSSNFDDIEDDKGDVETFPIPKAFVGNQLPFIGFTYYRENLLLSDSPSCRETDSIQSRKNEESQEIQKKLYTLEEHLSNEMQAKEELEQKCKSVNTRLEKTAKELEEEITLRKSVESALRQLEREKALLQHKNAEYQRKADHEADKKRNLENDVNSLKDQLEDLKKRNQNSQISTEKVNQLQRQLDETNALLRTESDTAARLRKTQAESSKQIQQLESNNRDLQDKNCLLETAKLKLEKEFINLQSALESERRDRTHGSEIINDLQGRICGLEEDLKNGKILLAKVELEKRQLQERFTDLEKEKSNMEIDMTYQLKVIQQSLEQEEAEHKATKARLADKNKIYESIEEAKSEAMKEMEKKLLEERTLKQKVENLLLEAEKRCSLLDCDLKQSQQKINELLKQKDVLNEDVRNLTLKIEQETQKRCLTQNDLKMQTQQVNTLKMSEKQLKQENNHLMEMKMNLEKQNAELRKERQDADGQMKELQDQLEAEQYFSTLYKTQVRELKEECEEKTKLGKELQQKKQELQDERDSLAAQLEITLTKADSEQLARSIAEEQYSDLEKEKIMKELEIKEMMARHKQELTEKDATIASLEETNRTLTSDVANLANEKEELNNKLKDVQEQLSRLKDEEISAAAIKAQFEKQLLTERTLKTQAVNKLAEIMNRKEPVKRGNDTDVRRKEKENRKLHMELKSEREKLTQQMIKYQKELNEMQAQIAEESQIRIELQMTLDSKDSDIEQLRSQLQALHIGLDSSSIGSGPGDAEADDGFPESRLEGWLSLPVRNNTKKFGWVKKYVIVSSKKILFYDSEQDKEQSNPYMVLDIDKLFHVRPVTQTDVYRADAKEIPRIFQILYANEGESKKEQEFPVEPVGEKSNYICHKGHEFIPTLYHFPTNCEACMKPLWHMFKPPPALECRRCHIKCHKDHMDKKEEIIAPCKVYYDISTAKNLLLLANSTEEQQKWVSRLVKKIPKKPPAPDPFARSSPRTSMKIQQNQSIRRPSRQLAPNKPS
Chain of MAPK14 (human) (Q16539 whole entry, looked up): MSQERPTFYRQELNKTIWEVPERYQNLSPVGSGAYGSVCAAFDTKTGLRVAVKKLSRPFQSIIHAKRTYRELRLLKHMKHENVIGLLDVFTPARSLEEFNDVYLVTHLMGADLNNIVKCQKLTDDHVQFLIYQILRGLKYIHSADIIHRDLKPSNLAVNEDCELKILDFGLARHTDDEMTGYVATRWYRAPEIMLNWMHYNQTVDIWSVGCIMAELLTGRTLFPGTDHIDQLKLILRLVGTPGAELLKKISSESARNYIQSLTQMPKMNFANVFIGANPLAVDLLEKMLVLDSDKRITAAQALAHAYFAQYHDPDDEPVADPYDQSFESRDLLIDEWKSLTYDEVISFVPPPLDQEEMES

As to `CC(C)(C)c1cc(NC(=O)c2cc3ccccc3s2)n(-c2ccc(OCC(=O)O)cc2)n1`, the inhibitory constant (Ki) (commonly a dissociation constant, usually derived from enzyme kinetics or from competition with a known ligand) on MAPK14 (human) came to 2510 nM. This lies in the single-digit micromolar range. On the same count and under the same terms, then `c1ccc(-c2ncc3ccccn23)cc1`, with 50100 nM; and `COc1ccc(C2=NNc3cccc4c(OC)ccc2c34)cc1OC`, with 501 nM.

As to `CCN(CCN(C)C)C(=O)c1cccc(-n2nc(C(C)(C)C)cc2NC(=O)Nc2cccc3ccccc23)c1`, the inhibitory constant (Ki) at MAPK14 (human) came to 794 nM. This Ki is about 1.6-fold higher than that of the molecule before. Still for that read-out and setting: then `Cc1cc(=O)[nH]c2[nH]nc(-c3cccc(C(F)(F)F)c3)c12`, with 398 nM; and `CC(C)(C)c1cc(NC(=O)C(=O)c2cccc3ccccc23)n(-c2ccc(OCCC(N)=O)cc2)n1`, with 631 nM. On the same count and under the same terms, then `COc1c(-c2nc3ccccc3[nH]2)c(O)cc2oc(C)cc(=O)c12`, with 3980 nM. As for `O=C(Nc1cc(-c2c[nH]c3ncccc23)cc(Cl)n1)c1ccccc1`, the inhibition constant (Ki) is 3160 nM on MAPK14 (human) and > 1000 nM on ROCK2 (human). For the molecule `CC(C)CC(NC(=O)c1cccc(-n2nc(C(C)(C)C)cc2NC(=O)Nc2cccc3ccccc23)c1)C(N)=O` (stereo unspecified), the Ki at MAPK14 (human) is 794 nM. Still for that read-out and setting: then `NC(=O)c1ccc2nc(-c3ccc([N+](=O)[O-])o3)cn2c1`, with 3160 nM.

For the molecule `O=[N+]([O-])c1cccc(-c2nnc3ccc(N4CCCCC4)nn23)c1`, the results for the inhibitory constant (Ki) at CDK2 (human) and on ROCK2 (human) were 631 nM and > 7940 nM, respectively.

For `O=C1Nc2ccccc2Nc2cc(-c3ccncc3Cl)ccc21`, the Ki was 501 nM at CDK2 (human) and 631 nM on ROCK2 (human). On to `Nc1n[nH]c2ccc(-c3cc(Cc4ccccc4)no3)cc12`, for which the Ki at CDK2 (human) is 200 nM; at ROCK2 (human), 25.1 nM. Take `NC(=O)c1ccc(-c2ccnc(N)n2)cc1N1CCCCC1`: the Ki on CDK2 (human) came out at 1260 nM; at ROCK2 (human), 1580 nM. For `COc1ccccc1C(=O)Nc1n[nH]c2ccc(-c3cn(Cc4ccccc4)nn3)cc12`, in that order: 251 nM and > 7940 nM. For `Cc1ccc(Nc2nccc(Nc3ccccc3C(=O)O)n2)cc1F`, in that order: 398 nM and > 7940 nM. With `O=C(O)c1ccccc1Nc1ncnc(Nc2ccc3cn[nH]c3c2)n1`, the Ki at CDK2 (human) was 316 nM; at ROCK2 (human), > 5010 nM. The molecule `CC(=O)n1ncc2cc(N)ccc21` registered a Ki at MAPK14 (human) of 7940 nM. This lies in the single-digit micromolar range. `Cc1cc(=O)[nH]nc1-c1ccc(NC(=O)Nc2cc(C(F)(F)F)ccc2F)c(Cl)c1`: at MAPK14 (human), the Ki worked out at 100 nM.

In the case of `O=C1c2ccccc2-c2n[nH]c3cccc1c23`, the Ki at CDK2 (human) came out at 79.4 nM; at ROCK2 (human), 3160 nM.

As for `c1ccc(Cn2cc(-c3ccc4[nH]nc(-c5cn(Cc6ccccc6)nn5)c4c3)nn2)cc1`, the inhibitory constant (Ki) at CDK2 (human) amounted to 5.01 nM; on ROCK2 (human) it was 126 nM. For the molecule `CC(C)(O)CNc1cc(-c2c[nH]c3ncccc23)cc(Cl)n1`, the Ki is 251 nM at CDK2 (human) and 15.8 nM at ROCK2 (human). With `Cc1ccc2nccc(NC(=O)Nc3cccc(C(F)(F)F)n3)c2c1`, the Ki at CDK2 (human) was 79.4 nM; at ROCK2 (human) it was > 6310 nM.

In the case of `CCCCOc1cc(-c2ccncc2)cc2[nH]nc(N)c12`, the results for the inhibition constant Ki on CDK2 (human) and at ROCK2 (human) were 1000 nM and 126 nM, respectively.

With `CCC(=O)Nc1ccc(C(=O)N2CCNCC2)c(O)c1`, the Ki at MAPK14 (human) worked out at 1000 nM.

Turning to `Cc1cccc(CNc2cc(-c3c[nH]c4ncccc34)cc(Cl)n2)c1C`, the Ki on CDK2 (human) came out at 200 nM; at ROCK2 (human) it was 31.6 nM.

Regarding `O=C1Nc2ccccc2Nc2cc(-c3ccncc3F)ccc21`, the Ki on CDK2 (human) was determined as 398 nM; on ROCK2 (human) it was 126 nM.

`N#Cc1ccc2[nH]c(O)c(-c3ccc(CN4CCOCC4)cn3)c2c1`: the inhibitory constant (Ki) on CDK2 (human) is 1000 nM; on ROCK2 (human), > 6310 nM. For `Nc1n[nH]c2ccc(-c3nnn(Cc4ccccc4)c3C3CC3)cc12`, in that order: 79.4 nM and 20 nM. In turn, `Fc1cccc(CNc2ncnc3[nH]cnc23)c1` yielded a Ki on MAPK14 (human) of 15800 nM.

Regarding `OCCNc1cc(-c2c[nH]c3ncccc23)cc(Cl)n1`, the Ki stood at 316 nM on CDK2 (human) and 20 nM at ROCK2 (human). On to `OCCCCNc1cc(-c2c[nH]c3ncccc23)cc(Cl)n1`, for which the Ki at CDK2 (human) turned out to be 126 nM; on ROCK2 (human), 15.8 nM.

Take `COCC(C)Nc1cc(-c2c[nH]c3ncccc23)cc(Cl)n1` (stereo unspecified): the results for the inhibition constant (Ki) at CDK2 (human) and at ROCK2 (human) were 158 nM and 7.94 nM, respectively. For `O=C(NCc1ccccc1)c1c[nH]n2c(=O)cc(-c3ccncc3)nc12`, in that order: 158 nM and > 7940 nM.

For the molecule `Cc1n[nH]c2ccc(-c3cncc(OCCN(C)S(C)(=O)=O)c3)cc12`, the Ki stood at 501 nM at CDK2 (human) and 100 nM at ROCK2 (human). Take `O=C1Nc2ccccc2Nc2cc(-c3ccncc3)ccc21`: the inhibition constant Ki on CDK2 (human) was determined as 1000 nM; at ROCK2 (human) it was 316 nM. For `NCCCn1cc(-c2cc(-c3cc4ccccc4s3)c3[nH]ncc3c2)c2nc(N)ncc21`, in that order: 12.6 nM and 63.1 nM.

With `Cc1cccc(CNc2cc(-c3c[nH]c4ncccc34)ncn2)c1`, the Ki on CDK2 (human) was 39.8 nM; at ROCK2 (human), 12.6 nM. Regarding `CC(C)(C)c1cc(NC(=O)Nc2cccc3ccccc23)n(-c2cccc(C(=O)N(CCN)CCO)c2)n1`, the inhibition constant (Ki) on MAPK14 (human) turned out to be 631 nM.

As for `COc1cc2ncn(-c3cc(OCc4ccccc4C(F)(F)F)c(C(N)=O)s3)c2cc1OC`, the Ki at ROCK2 (human) was > 7940 nM; at EGFR (human) it was 251 nM.

The molecule `Cc1ccc(-c2cc(-c3cc(Br)ccc3O)[nH]c(=O)c2C#N)s1` returned a Ki at MAPK14 (human) of 2510 nM.

In the case of `Cc1n[nH]c2ccc(-c3cncc(OCCNS(C)(=O)=O)c3)cc12`, the inhibition constant (Ki) on CDK2 (human) is 316 nM; on ROCK2 (human) it was 158 nM. Turning to `Nc1ccc2cc(NCCc3ccccc3)cc(Nc3ncccn3)c2n1`, the Ki at MAPK14 (human) was found to be 2510 nM.

On to `CCOC(=O)c1cn(-c2ccc(O)cc2C)c2cc(-c3ccncc3)ccc2c1=O`, for which the inhibition constant (Ki) is 3980 nM at CDK2 (human) and 31.6 nM at ROCK2 (human). Take `CC(C)(C)c1cc(NC(=O)c2cc3ccccc3s2)n(-c2cccc(OCC(=O)O)c2)n1`: the Ki on MAPK14 (human) stood at 794 nM.

Turning to `CCCCCCCCCCCCOc1ccc(NC(=N)N)cc1NC(=N)N`, the Ki at CDK2 (human) came out at 5010 nM; at ROCK2 (human), 3160 nM. Regarding `O=C(Cc1cccs1)Nc1nc2ccccc2s1`, the Ki at MAPK14 (human) was found to be 3980 nM. As to `CN1CCN(c2nc(C3=C(c4c[nH]c5ccccc45)C(=O)NC3=O)c3ccccc3n2)CC1`, the inhibition constant Ki on CDK2 (human) was 126 nM; at ROCK2 (human), > 7940 nM. `CC(C)(C)c1cc(NC(=O)C(=O)c2cccc3ccccc23)n(-c2ccc(OCC(=O)NCCO)cc2)n1` displayed an inhibition constant (Ki) on MAPK14 (human) of 631 nM.

Turning to `CN(C)c1cc(-c2ccncc2)cc2[nH]nc(N)c12`, the figures for the Ki at CDK2 (human) and on ROCK2 (human) were 631 nM and 79.4 nM, respectively.
